Reference: ChEMBL document CHEMBL6092203, “Discovery of Novel PROTAC-Based HPK1 Degraders with High Potency and Selectivity for Cancer Immunotherapy” (J Med Chem, 2024)

What was measured:
MC-38 [1] = test: Antitumor activity against mouse MC38 cells implanted in C57BL/6J mouse assessed as tumor growth inhibition at 10 mg/kg, po BID measured after 4 weeks; type: functional; settings: MC-38, 672 h, read-out: TGI
MC-38 [2] = test: Antitumor activity against mouse MC38 cells implanted in C57BL/6J mouse assessed as tumor weight inhibition rate at 10 mg/kg, po BID measured after 4 weeks; type: functional; set-up: scale not given: the % may be the effect or the level left
MC-38 [3] = test: Synergistic antitumor activity against mouse MC38 cells implanted in C57BL/6J mouse assessed as tumor weight inhibition rate at 10 mg/kg, po bid measured after 4 weeks in presence of 5 mg/kg anti-PD1 and measured twice a week; type: functional; set-up: scale not given: the % may be the effect or the level left
MC-38 [4] = test: Synergistic antitumor activity against mouse MC38 cells implanted in C57BL/6J mouse assessed as tumor growth inhibition at 10 mg/kg, po bid measured after 4 weeks in presence of 5 mg/kg anti-PD1 and measured twice a week; type: functional; settings: MC-38, 672 h, read-out: TGI
MC-38 [5] = test: Synergistic antitumor activity against mouse MC38 cells implanted in C57BL/6J mouse assessed as reduction in tumor weight at 10 mg/kg, po bid administered for 3 to 4 weeks in presence of 5 mg/kg anti-PD1 and measured twice a week (reference value: 1.79 +/- 0.24 g); type: functional; settings: time 3-4 weeks
MC-38 [6] = test: Antitumor activity against mouse MC38 cells implanted in C57BL/6J mouse assessed as reduction in tumor weight at 1 mg/kg, po BID administered for 3 to 4 weeks (reference value: 1.79 +/- 0.24 g); type: functional; settings: time 3-4 weeks
MC-38 [7] = test: Antitumor activity against mouse MC38 cells implanted in C57BL/6J mouse assessed as tumor weight inhibition rate at 1 mg/kg, po BID measured after 4 weeks; type: functional; set-up: scale not given: the % may be the effect or the level left
MC-38 [8] = test: Synergistic antitumor activity against mouse MC38 cells implanted in C57BL/6J mouse assessed as reduction in tumor volume at 10 mg/kg, po bid administered for 3 to 4 weeks in presence of 5 mg/kg anti-PD1 and measured twice a week (reference value: 1549.22 +/- 217.92 mm3); type: functional; settings: time 3-4 weeks
MC-38 [9] = test: Synergistic antitumor activity against mouse MC38 cells implanted in C57BL/6J mouse assessed as tumor weight inhibition rate at 1 mg/kg, po bid measured after 4 weeks in presence of 5 mg/kg anti-PD1 and measured twice a week; type: functional; set-up: scale not given: the % may be the effect or the level left
MC-38 [10] = test: Antitumor activity against mouse MC38 cells implanted in C57BL/6J mouse assessed as reduction in tumor volume at 10 mg/kg, po BID administered for 3 to 4 weeks (reference value: 1549.22 +/- 217.92 mm3); type: functional; settings: time 3-4 weeks
MC-38 [11] = test: Synergistic antitumor activity against mouse MC38 cells implanted in C57BL/6J mouse assessed as reduction in tumor volume at 1 mg/kg, po bid administered for 3 to 4 weeks in presence of 5 mg/kg anti-PD1 and measured twice a week (reference value: 1549.22 +/- 217.92 mm3); type: functional; settings: time 3-4 weeks
MC-38 [12] = test: Antitumor activity against mouse MC38 cells implanted in C57BL/6J mouse assessed as reduction in tumor volume at 1 mg/kg, po BID administered for 3 to 4 weeks (reference value: 1549.22 +/- 217.92 mm3); type: functional; settings: time 3-4 weeks
MC-38 [13] = test: Antitumor activity against mouse MC38 cells implanted in C57BL/6J mouse assessed as reduction in tumor weight at 10 mg/kg, po BID administered for 3 to 4 weeks (reference value: 1.79 +/- 0.24 g); type: functional; settings: time 3-4 weeks
MC-38 [14] = test: Synergistic antitumor activity against mouse MC38 cells implanted in C57BL/6J mouse assessed as reduction in tumor weight at 1 mg/kg, po bid administered for 3 to 4 weeks in presence of 5 mg/kg anti-PD1 and measured twice a week (reference value: 1.79 +/- 0.24 g); type: functional; settings: time 3-4 weeks
MC-38 [15] = test: Synergistic antitumor activity against mouse MC38 cells implanted in C57BL/6J mouse assessed as tumor growth inhibition at 1 mg/kg, po bid measured after 4 weeks in presence of 5 mg/kg anti-PD1 and measured twice a week; type: functional; settings: MC-38, 672 h, read-out: TGI
MC-38 [16] = test: Antitumor activity against mouse MC38 cells implanted in C57BL/6J mouse assessed as tumor growth inhibition at 1 mg/kg, po BID measured after 4 weeks; type: functional; settings: MC-38, 672 h, read-out: TGI
[17] = biological target: Mitogen-activated protein kinase kinase kinase kinase 1 (Homo sapiens, UniProt Q92918); test: Induction of HPK1 (unknown origin) degradation
[18] = biological target: Protein cereblon/Mitogen-activated protein kinase kinase kinase kinase 1 (Homo sapiens, UniProt Q92918+Q96SW2); test: PROTAC activity at CRBN/HPK1 in human Jurkat cells incubated for 24 hrs by Western blotting analysis; type: cell-based
Protein cereblon/Mitogen-activated protein kinase kinase kinase kinase 1, sequence (Q92918 whole entry): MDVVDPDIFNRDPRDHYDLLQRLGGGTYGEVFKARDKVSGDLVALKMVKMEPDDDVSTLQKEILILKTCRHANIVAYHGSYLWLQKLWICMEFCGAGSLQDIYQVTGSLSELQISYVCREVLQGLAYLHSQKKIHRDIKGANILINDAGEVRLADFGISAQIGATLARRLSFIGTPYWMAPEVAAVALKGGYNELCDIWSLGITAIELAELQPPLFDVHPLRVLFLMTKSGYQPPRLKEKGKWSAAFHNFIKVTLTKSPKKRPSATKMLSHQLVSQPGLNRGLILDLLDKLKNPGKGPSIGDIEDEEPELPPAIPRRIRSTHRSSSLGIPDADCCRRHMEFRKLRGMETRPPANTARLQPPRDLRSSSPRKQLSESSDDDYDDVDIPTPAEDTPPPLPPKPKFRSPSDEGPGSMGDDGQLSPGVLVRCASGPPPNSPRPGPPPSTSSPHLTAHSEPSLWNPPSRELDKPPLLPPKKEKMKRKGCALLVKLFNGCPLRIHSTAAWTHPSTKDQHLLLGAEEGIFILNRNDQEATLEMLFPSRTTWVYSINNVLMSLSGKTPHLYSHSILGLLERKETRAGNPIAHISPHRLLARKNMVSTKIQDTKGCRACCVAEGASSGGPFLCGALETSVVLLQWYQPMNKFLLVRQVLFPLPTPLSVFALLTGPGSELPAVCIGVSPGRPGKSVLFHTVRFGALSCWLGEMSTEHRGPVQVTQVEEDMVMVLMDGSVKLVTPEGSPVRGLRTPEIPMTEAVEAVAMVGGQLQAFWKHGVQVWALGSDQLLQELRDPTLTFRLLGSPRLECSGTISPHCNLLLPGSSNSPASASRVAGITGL
Protein cereblon/Mitogen-activated protein kinase kinase kinase kinase 1, sequence (Q96SW2 whole entry): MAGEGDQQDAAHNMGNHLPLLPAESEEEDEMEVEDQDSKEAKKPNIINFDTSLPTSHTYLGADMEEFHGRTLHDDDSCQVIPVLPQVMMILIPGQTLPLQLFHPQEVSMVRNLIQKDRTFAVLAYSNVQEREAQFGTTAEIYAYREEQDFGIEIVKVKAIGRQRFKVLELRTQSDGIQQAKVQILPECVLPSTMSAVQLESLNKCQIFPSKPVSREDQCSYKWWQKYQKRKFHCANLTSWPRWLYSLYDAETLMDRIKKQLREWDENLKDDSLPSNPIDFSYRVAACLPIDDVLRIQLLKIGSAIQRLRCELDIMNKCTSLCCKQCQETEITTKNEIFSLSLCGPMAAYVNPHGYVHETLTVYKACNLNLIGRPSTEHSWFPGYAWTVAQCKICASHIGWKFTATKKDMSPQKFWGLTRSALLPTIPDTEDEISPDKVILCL

Mitogen-activated protein kinase kinase kinase kinase 1, sequence (Q92918 whole entry): as the sequence (Q92918 whole entry) above

CCC(CC)n1cc(Oc2nc(-c3cc(C)c(C(=O)NCCN4CC[C@@H](F)C4)c(C)c3)cnc2N)cn1 was tested, and the inhibition in vivo at 10 mg/kg (MC-38 [1]) was -22.4%, the Activity (MC-38 [2]) was -26.45% and the Activity (MC-38 [3]) was 68.3%. It also gave an inhibition in vivo at 10 mg/kg (MC-38 [4]) of 72.6%, an Activity (MC-38 [5]) of 0.57 g and an Activity (MC-38 [6]) of 2.04 g. The Activity (MC-38 [7]) was -13.75%, the Activity (MC-38 [8]) was 423.84 mm3 and the Activity (MC-38 [9]) was 73.27%. The Activity (MC-38 [10]) was 1896.55 mm3, the Activity (MC-38 [11]) was 367.21 mm3 and the Activity (MC-38 [12]) was 1349.36 mm3. The Activity (MC-38 [13]) was 2.27 g, the Activity (MC-38 [14]) was 0.48 g and the inhibition in vivo at 1 mg/kg (MC-38 [15]) was 76.3%. It also gave an inhibition in vivo at 1 mg/kg (MC-38 [16]) of 12.9%.

For CN1CCC(n2cc(-c3c[nH]c4ncc(-c5ccc(N6CCC(CC7CCN(C(=O)c8ccc(Cl)c(N9CCC(=O)NC9=O)c8)CC7)CC6)nc5)nc34)cn2)CC1, the DC50 [17] was 1.8 nM and the DC50 [18] was 21.4 nM.
